# Molecular target: T1, LRRK2 wild type (recombinant human, catalytic domain amino acids 970-2527, GST-tagged) (Homo sapiens, UniProt Q5S007)
# T1 construct: The wild type used was recombinant human, catalytic domain (amino acids 970-2527) GST-tagged, expressed in insect cells; GST; purchased Invitrogen Corporation PV4873; host or cells: insect cells
# Test: LRRK2 wild type protein kinase assay ([γ-33P] ATP, peptide substrate […]), IC50
# Assay type: biochemical
# Details: LRRK2 (variant not given); read-out: Potency score, LRRK2 IC50
# Summary of the method: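 IC50 derived from duplicate 10-point titrations, with 33P incorporation into a 100 μM peptide counted after P81 filter capture. Roughly 5 nM unactivated kinase reacted with Mg/[γ-33P]ATP for 180 min at room temperature (~21 °C), pH 7.5 Tris buffer containing 10 mM MgCl2, EGTA and DTT; acid-quenched.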
# T1 sequence (Q5S007 970-2527): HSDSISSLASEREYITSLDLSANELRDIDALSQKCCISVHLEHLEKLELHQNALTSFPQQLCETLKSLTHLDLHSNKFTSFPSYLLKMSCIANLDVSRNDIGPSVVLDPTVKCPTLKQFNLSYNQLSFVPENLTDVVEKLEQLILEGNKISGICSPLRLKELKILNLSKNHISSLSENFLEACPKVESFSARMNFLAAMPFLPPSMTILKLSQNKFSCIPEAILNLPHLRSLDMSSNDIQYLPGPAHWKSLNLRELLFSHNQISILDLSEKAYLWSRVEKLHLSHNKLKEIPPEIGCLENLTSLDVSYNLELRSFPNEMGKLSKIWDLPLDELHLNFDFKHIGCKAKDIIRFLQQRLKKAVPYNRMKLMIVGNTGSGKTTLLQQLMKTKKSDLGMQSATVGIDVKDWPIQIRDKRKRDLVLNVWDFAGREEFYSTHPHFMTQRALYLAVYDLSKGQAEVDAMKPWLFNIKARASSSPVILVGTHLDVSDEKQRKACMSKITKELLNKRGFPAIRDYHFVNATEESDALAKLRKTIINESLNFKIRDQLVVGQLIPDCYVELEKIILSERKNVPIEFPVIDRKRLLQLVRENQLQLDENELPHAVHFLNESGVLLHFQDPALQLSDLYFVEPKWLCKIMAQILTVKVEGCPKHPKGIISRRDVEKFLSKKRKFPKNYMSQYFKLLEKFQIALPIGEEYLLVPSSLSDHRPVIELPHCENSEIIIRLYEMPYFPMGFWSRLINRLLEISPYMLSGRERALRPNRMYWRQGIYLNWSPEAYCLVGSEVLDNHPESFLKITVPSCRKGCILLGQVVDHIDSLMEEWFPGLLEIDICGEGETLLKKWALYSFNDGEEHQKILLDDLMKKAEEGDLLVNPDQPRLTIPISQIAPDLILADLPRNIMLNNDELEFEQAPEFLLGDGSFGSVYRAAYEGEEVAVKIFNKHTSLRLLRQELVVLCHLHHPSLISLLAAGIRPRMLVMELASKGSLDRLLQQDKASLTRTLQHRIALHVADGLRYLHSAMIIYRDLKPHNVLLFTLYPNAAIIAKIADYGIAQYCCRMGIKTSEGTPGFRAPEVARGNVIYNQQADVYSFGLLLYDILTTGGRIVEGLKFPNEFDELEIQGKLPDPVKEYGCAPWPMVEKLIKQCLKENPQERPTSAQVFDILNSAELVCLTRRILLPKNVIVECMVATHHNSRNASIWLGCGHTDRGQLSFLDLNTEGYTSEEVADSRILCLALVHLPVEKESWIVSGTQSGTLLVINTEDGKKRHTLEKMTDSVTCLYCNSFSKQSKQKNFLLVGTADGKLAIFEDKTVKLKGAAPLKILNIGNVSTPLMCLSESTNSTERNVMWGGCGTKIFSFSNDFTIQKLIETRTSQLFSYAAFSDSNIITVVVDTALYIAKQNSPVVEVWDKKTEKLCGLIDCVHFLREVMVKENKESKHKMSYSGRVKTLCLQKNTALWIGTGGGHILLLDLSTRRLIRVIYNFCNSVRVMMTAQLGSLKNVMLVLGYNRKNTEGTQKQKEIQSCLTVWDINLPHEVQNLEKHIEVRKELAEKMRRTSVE
row,Compound,IC50 [nM]
1,"O=C(CCc1n[nH]c2ccnc(NC3CCCCC3)c12)N1CC(c2ccccc2)C1 [Example 242, 3-(4-Cyclohexylamino-1H-pyrazolo[4,3-c]pyridin-3-yl)-1-(3-phenyl-azetidin-1-yl)-propan-1-one]",100 to 1000
2,"Cc1n[nH]c2ccnc(Nc3ccccc3)c12 [Example 70, (3-Methyl-1H-pyrazolo[4,3-c]pyridin-4-yl)-phenyl-amine]",100 to 1000
3,"Cc1n[nH]c2ccnc(Oc3cccc(F)c3)c12 [Example 117, 4-(3-Fluoro-phenoxy)-3-methyl-1H-pyrazolo [4,3-c]pyridine]",100 to 1000
4,"Cc1n[nH]c2ccnc(Nc3ccccc3F)c12 [Example 62, (2-Fluoro-phenyl)-(3-methyl-1H-pyrazolo[4,3-c]pyridin-4-yl)-amine]",100 to 1000
5,"Cc1n[nH]c2ccnc(NC(C)C(C)C)c12 (centres unmarked) [Example 27, (1,2-Dimethyl-propyl)-(3-methyl-1H-pyrazolo[4,3-c]pyridin-4-yl)-amine]",100 to 1000
6,"Cc1n[nH]c2ccnc(Nc3cccc(NS(C)(=O)=O)c3)c12 [Example 73, N-[3-(3-Methyl-1H-pyrazolo[4,3-c]pyridin-4-ylamino)-phenyl]-methanesulfonamide]",100 to 1000
7,"O=C(Nc1cccc(CCc2n[nH]c3ccnc(NC4CCCCC4)c23)c1)c1ccc(N2CCOCC2)cc1 [Example 227, N-{3-[2-(4-Cyclohexylamino-1H-pyrazolo[4,3-c]pyridin-3-yl)-ethyl]-phenyl}-4-morpholin-4-yl-benzamide]",< 100
8,"Cc1n[nH]c2ccnc(OC3CCCCC3)c12 [Example 114, 4-Cyclohexyloxy-3-methyl-1H-pyrazolo[4,3-c]pyridine]",< 100
9,"Cc1n[nH]c2ccnc(Nc3ccc4ncoc4c3)c12 [Example 349, Benzoxazol-6-yl-(3-methyl-1H-pyrazolo[4,3-c]pyridin-4-yl)-amine]",100 to 1000
10,"CC(=O)Nc1ccc(CCc2n[nH]c3ccnc(NC4CCCCC4)c23)cc1 [Example 262, N-{4-[2-(4-Cyclohexylamino-1H-pyrazolo[4,3-c]pyridin-3-yl)-ethyl]-phenyl}-acetamide]",< 100
11,"O=C(Nc1ccc(CCc2n[nH]c3ccnc(NC4CCCCC4)c23)cc1)c1cccc(F)c1 [Example 275, N-{4-[2-(4-Cyclohexylamino-1H-pyrazolo[4,3-c]pyridin-3-yl)-ethyl]-phenyl}-3-fluoro-benzamide]",< 100
12,"Cc1n[nH]c2ccnc(-c3ccc(N4CCOCC4)cc3)c12 [Example 53, 3-Methyl-4-(4-morpholin-4-yl-phenyl)-1H-pyrazolo[4,3-c] pyridine]",1000 to 10000
13,c1cc2[nH]nc(-c3ccoc3)c2c(NC2CCCCC2)n1 [Example 147],100 to 1000
14,"COc1cccc(-c2n[nH]c3ccnc(NC4CCCCC4)c23)c1 [Example 146, Cyclohexyl-[3-(3-methoxy-phenyl)-1H-pyrazolo[4,3-c]pyridin-4-yl]-amine]",100 to 1000
15,"O=C(c1cccc(-c2n[nH]c3ccnc(NC4CCCCC4)c23)c1)N1CCOCC1 [Example 153, [3-(4-Cyclohexylamino-1H-pyrazolo[4,3-c]pyridin-3-yl)-phenyl]-morpholin-4-yl-methanone]",1000 to 10000
16,"COc1ccc(CCNc2nccc3[nH]nc(C)c23)cc1 [Example 338, [2-(4-Methoxy-phenyl)-ethyl]-(3-methyl-1H-pyrazolo[4,3-c]pyridin-4-yl)-amine]",1000 to 10000
17,"COC1CCCN(C(=O)CCc2n[nH]c3ccnc(NC4CCCCC4)c23)C1 (centres unmarked) [Example 196, 3-(4-Cyclohexylamino-1H-pyrazolo[4,3-c]pyridin-3-yl)-1-(3-methoxy-piperidin-1-yl)-propan-1-one]",100 to 1000
18,"CC(C)C(=O)Nc1ccc(CCc2n[nH]c3ccnc(NC4CCCCC4)c23)cc1 [Example 263, N-{4-[2-(4-Cyclohexylamino-1H-pyrazolo[4,3-c]pyridin-3-yl)-ethyl]-phenyl}-isobutyramide]",100 to 1000
19,"Cc1n[nH]c2ccnc(NC3CC3)c12 [Example 11, Cyclopropyl-(3-methyl-1H-pyrazolo[4,3-c]pyridin-4-yl)-amine]",1000 to 10000
20,"N#Cc1cccc(-c2n[nH]c3ccnc(NC4CCCCC4)c23)c1 [Example 150, 3-(4-Cyclohexylamino-1H-pyrazolo[4,3-c]pyridin-3-yl)-benzonitrile]",100 to 1000
21,"O=C(CCc1n[nH]c2ccnc(NC3CCCCC3)c12)N1CCCC(c2ccccc2)C1 (centres unmarked) [Example 170, 3-(4-Cyclohexylamino-1H-pyrazolo[4,3-c]pyridin-3-yl)-1-(3-phenyl-piperidin-1-yl)-propan-1-one]",100 to 1000
22,"Cc1n[nH]c2ccnc(Nc3cccc(O)c3)c12 [Example 77, 3-(3-Methyl-1H-pyrazolo[4,3-c]pyridin-4-ylamino)-phenol]",100 to 1000

row,Compound,IC50 [nM]
1,"O=C(CCc1n[nH]c2ccnc(NC3CCCCC3)c12)NCc1cccc(F)c1 [Example 186, 3-(4-Cyclohexylamino-1H-pyrazolo[4,3-c]pyridin-3-yl)-N-(3-fluoro-benzyl)-propionamide]",1000 to 10000
2,"Cc1n[nH]c2ccnc(O[C@H](C)C(C)C)c12 [Example 288, 4-((R)-1,2-Dimethyl-propoxy)-3-methyl-1H-pyrazolo [4,3-c]pyridine]",< 100
3,"Cc1n[nH]c2ccnc(N3CCN(Cc4cc(F)ccc4F)CC3)c12 [Example 8, 4-[4-(2,5-Difluoro-benzyl)-piperazin-1-yl]-3-methyl-1H-pyrazolo[4,3-c]pyridine]",1000 to 10000
4,"Cc1n[nH]c2ccnc(NCCc3cccnc3)c12 [Example 351, (3-Methyl-1H-pyrazolo[4,3-c]pyridin-4-yl)-(2-pyridin-3-yl-ethyl)-amine]",100 to 1000
5,CO[C@@H](C)COc1nccc2[nH]nc(C)c12 [Example 287],1000 to 10000
6,"Cc1n[nH]c2ccnc(N[C@@H](C)C3CC3)c12 [Example 42, ((S)-1-Cyclopropyl-ethyl)-(3-methyl-1H-pyrazolo[4,3-c]pyridin-4-yl)-amine]",100 to 1000
7,"O=C(Nc1ccncc1)c1ccc(CCc2n[nH]c3ccnc(NC4CCCCC4)c23)cc1 [Example 256, 4-[2-(4-Cyclohexylamino-1H-pyrazolo[4,3-c]pyridin-3-yl)-ethyl]-N-pyridin-4-yl-benzamide]",< 100
8,"O=C(Nc1cccc(CCc2n[nH]c3ccnc(NC4CCCCC4)c23)c1)c1cocn1 [Example 228, Oxazole-4-carboxylic acid {3-[2-(4-cyclohexylamino-1H-pyrazolo[4,3-c]pyridin-3-yl)-ethyl]-phenyl}-amide]",< 100
9,"Cc1n[nH]c2ccnc(Nc3cccc(F)c3)c12 [Example 65, (3-Fluoro-phenyl)-(3-methyl-1H-pyrazolo[4,3-c]pyridin-4-yl)-amine]",100 to 1000
10,"c1cc2[nH]nc(CCC3CCNCC3)c2c(NC2CCCCC2)n1 [Example 217, Cyclohexyl-[3-(2-piperidin-4-yl-ethyl)-1H-pyrazolo[4,3-c]pyridin-4-yl]-amine]",1000 to 10000
11,"Cc1n[nH]c2ccnc(Nc3ccc(Cl)cc3)c12 [Example 310, (4-Chloro-phenyl)-(3-methyl-1H-pyrazolo[4,3-c]pyridin-4-yl)-amine]",100 to 1000
12,"Cc1n[nH]c2ccnc(Nc3ccc(C(=O)N4CCCC4)cc3)c12 [Example 113, [4-(3-Methyl-1H-pyrazolo[4,3-c]pyridin-4-ylamino)-phenyl]-pyrrolidin-1-yl-methanone]",100 to 1000
13,"COc1ccccc1Nc1nccc2[nH]nc(C)c12 [Example 84, (2-Methoxy-phenyl)-(3-methyl-1H-pyrazolo[4,3-c]pyridin-4-yl)-amine]",100 to 1000
14,"COC(=O)c1ccc(CCc2n[nH]c3ccnc(NC4CCCCC4)c23)cc1 [Example 232, 4-[2-(4-Cyclohexylamino-1H-pyrazolo[4,3-c]pyridin-3-yl)-ethyl]-benzoic acid methyl ester]",100 to 1000
15,"CC1CCCN(C(=O)CCc2n[nH]c3ccnc(NC4CCCCC4)c23)C1 (centres unmarked) [Example 199, 3-(4-Cyclohexylamino-1H-pyrazolo[4,3-c]pyridin-3-yl)-1-(3-methyl-piperidin-1-yl)-propan-1-one]",< 100
16,"Cc1n[nH]c2ccnc(NCc3ccco3)c12 [Example 303, Furan-2-ylmethyl-(3-methyl-1H-pyrazolo[4,3-c]pyridin-4-yl)-amine]",1000 to 10000
17,"CC[C@@H](C)Nc1nccc2[nH]nc(C)c12 [Example 37, ((R)-sec-Butyl)-(3-methyl-1H-pyrazolo[4,3-c]pyridin-4-yl)-amine]",1000 to 10000
18,"CC1CN(C(=O)CCc2n[nH]c3ccnc(NC4CCCCC4)c23)CCN1C (centres unmarked) [Example 244, 3-(4-Cyclohexylamino-1H-pyrazolo [4,3-c]pyridin-3-yl)-1-(3,4-dimethyl-piperazin-1-yl)-propan-1-one]",100 to 1000
19,"CCN(CC)C(=O)C1CCCN(C(=O)CCc2n[nH]c3ccnc(NC4CCCCC4)c23)C1 (centres unmarked) [Example 193, 1-[3-(4-Cyclohexylamino-1H-pyrazolo[4,3-c]pyridin-3-yl)-propionyl]-piperidine-3-carboxylic acid diethylamide]",100 to 1000
20,"O=C(CCc1n[nH]c2ccnc(NC3CCCCC3)c12)N1CCC(c2ccccc2)C1 (centres unmarked) [Example 206, 3-(4-Cyclohexylamino-1H-pyrazolo[4,3-c]pyridin-3-yl)-1-(3-phenyl-pyrrolidin-1-yl)-propan-1-one]",< 100
21,"COc1ccccc1NC(=O)c1ccc(Nc2nccc3[nH]nc(C)c23)cc1 [Example 111, N-(2-Methoxy-phenyl)-4-(3-methyl-1H-pyrazolo[4,3-c]pyridin-4-ylamino)-benzamide]",1000 to 10000
22,"c1cc2[nH]nc(C3CC3)c2c(NC2CCCCC2)n1 [Example 138, Cyclohexyl-(3-cyclopropyl-1H-pyrazolo[4,3-c]pyridin-4-yl)-amine]",100 to 1000

# Source: patent publication US20170320870A1 (Medical Research Council Technology, priority 2009, published 2017)
